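1) Cells in 96-well plates. 2) Compound, 48 h, 5 concentrations. 3) Linear interpolation between surrounding doses. 4) Unreached endpoint = highest concentration. At the GI50, growth is halved. TGI is the concentration that stops growth completely.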 Where a SMILES comes first, the peptide text is derived from it. The star is where a group is joined. Trt = c1ccc(C(c2ccccc2)(c2ccccc2)*)cc1; Cbz = O=C(OCc1ccccc1)*
Experiments:
Test in all cases: NCI tumour cell line growth inhibition, 48 h
DU-145 prostate = system: DU-145 prostate
HCC-2998 colon = system: HCC-2998 colon
KM12 colon = system: KM12 colon
MALME-3M melanoma = system: MALME-3M melanoma
NCI-H522 lung = system: NCI-H522 lung
OVCAR-3 ovarian = system: OVCAR-3 ovarian
SK-MEL-2 melanoma = system: SK-MEL-2 melanoma
U251 CNS = system: U251 CNS
UO-31 renal = system: UO-31 renal
SW-620 colon = system: SW-620 colon

Row | SMILES | TGI (DU-145 prostate) | TGI (HCC-2998 colon) | TGI (KM12 colon) | TGI (MALME-3M melanoma) | TGI (NCI-H522 lung) | TGI (OVCAR-3 ovarian) | TGI (SK-MEL-2 melanoma) | TGI (U251 CNS) | TGI (UO-31 renal) | GI50 (DU-145 prostate) | GI50 (HCC-2998 colon) | GI50 (KM12 colon) | GI50 (MALME-3M melanoma) | GI50 (NCI-H522 lung) | GI50 (OVCAR-3 ovarian) | GI50 (SK-MEL-2 melanoma) | GI50 (SW-620 colon) | TGI (SW-620 colon) | GI50 (U251 CNS) | GI50 (UO-31 renal)
1 | COc1ccc(-c2cc(=O)c3c(O)c(OC)c(OC)c(OC)c3o2)cc1OC | > 100 µM | > 100 µM | > 100 µM | > 100 µM | 43.9 µM | > 100 µM | > 100 µM | > 100 µM | > 100 µM | – | – | – | – | – | – | – | – | – | – | –
2 | O=C1NC(=NCc2ccccc2Cl)S/C1=C\c1ccc2ncccc2c1 | > 25 µM | > 25 µM | > 25 µM | > 25 µM | > 17.9 µM | > 25 µM | > 22.3 µM | > 25 µM | > 25 µM | 11.2 µM | > 25 µM | > 21.8 µM | > 20.7 µM | 4.75 µM | 17.6 µM | 8.5 µM | 6.61 µM | > 25 µM | 6.44 µM | > 13.6 µM
3 | C[C@@]1([C@H](OC(=O)c2ccccc2)C(N)=O)CO1 | > 100 µM | 40.3 µM | > 100 µM | 58 µM | 76.5 µM | 35.4 µM | > 100 µM | 37.5 µM | 51.8 µM | 27.2 µM | 20.5 µM | 33.4 µM | 28.3 µM | 22.2 µM | 16.4 µM | 22.1 µM | 22.6 µM | 95.2 µM | 17.1 µM | 20.2 µM
4 | NS(=O)(=O)c1ccc(Nc2cc(-c3ccc(O)c(F)c3)[nH]n2)cc1 | > 25 µM | > 25 µM | > 25 µM | > 25 µM | > 25 µM | > 25 µM | > 25 µM | > 25 µM | > 25 µM | > 25 µM | > 25 µM | 10.3 µM | > 23.2 µM | 13.9 µM | 9.43 µM | 11.4 µM | > 25 µM | > 25 µM | 16.4 µM | > 25 µM
5 | COc1cc2c(c(OC)c1OC)-c1ccc(NN(C(=O)c3ccccc3)C(=O)c3ccccc3)c(=O)cc1[C@@H](NC(C)=O)CC2 (tested in a mixture with another compound) | > 100 µM | 12.7 µM | 25.7 µM | > 100 µM | 6.18 µM | 13.4 µM | 16.6 µM | 21.3 µM | 41.6 µM | 3.3 µM | 3.23 µM | 3.63 µM | 17.6 µM | 2.01 µM | 2.8 µM | 3.42 µM | 3.73 µM | 15.3 µM | 3.77 µM | 4.59 µM
6 | COc1cc2cc(Oc3ccc(NC(=O)Nc4cc(C(F)(F)F)cc(C(F)(F)F)c4)cc3)c(C)nc2cc1OCCN1CCOCC1 | 7.05 µM | 6.97 µM | 5.95 µM | 3.79 µM | 7.29 µM | 5.28 µM | 6.91 µM | 2.85 µM | 4.06 µM | 1.93 µM | 2.09 µM | 1.53 µM | 1.2 µM | 1.63 µM | 1.43 µM | 1.74 µM | 1.72 µM | 7.17 µM | 1.13 µM | 1.01 µM
7 | COc1cc(/C=C/C(=O)c2cccc(-n3cc(-c4cc(OC)c(OC)c(OC)c4)[nH]c3=O)c2)cc(OC)c1OC | 13.6 µM | 3.43 µM | 2.46 µM | 3.7 µM | 2.53 µM | 4.32 µM | 7.63 µM | 3.71 µM | 3.13 µM | 2.98 µM | 1.92 µM | 1.12 µM | 1.8 µM | 1.05 µM | 1.48 µM | 3.02 µM | – | – | 1.23 µM | 0.962 µM
8 | Clc1nccc2c(-c3csc(-c4c[nH]c5ccc(Br)cc45)n3)c[nH]c12 | 14 µM | 4.4 µM | 5.7 µM | – | 6.86 µM | 15 µM | 16.4 µM | 5.02 µM | 11.5 µM | 1.76 µM | 2.22 µM | 2.15 µM | – | 2.28 µM | 3.45 µM | 4.09 µM | 1.92 µM | 3.63 µM | 2.05 µM | 0.932 µM
9 | COC(=O)C(CO)NC(=O)C(CSC(c1ccccc1)(c1ccccc1)c1ccccc1)NC(=O)OCc1ccccc1 (centres undefined) (Cbz-Cys(Trt)-Ser-OMe; configuration not given here) | 43.4 µM | 29 µM | 31.3 µM | 28.5 µM | 34.3 µM | 28.6 µM | 34.5 µM | 33.3 µM | 28.5 µM | – | – | – | – | – | – | – | – | 32.4 µM | – | –
10 | COc1ccc2nc3cc(Cl)ccc3c(NCCCNCCO)c2c1 | 2.77 µM | 2.17 µM | 2.81 µM | 2.82 µM | 1.63 µM | 2.86 µM | 2.79 µM | 2.12 µM | 3.19 µM | 0.48 µM | 0.609 µM | 0.498 µM | 1.21 µM | 0.379 µM | 0.588 µM | 1.32 µM | 0.304 µM | 2.68 µM | 0.455 µM | 0.602 µM
11 | Cc1ccc(CNc2ccc(Br)cc2)cc1 | > 100 µM | 66 µM | > 100 µM | 64 µM | 43.9 µM | > 100 µM | – | > 100 µM | 49.2 µM | – | – | – | – | – | – | – | – | > 100 µM | – | –
12 | O=C(O)C1=C/C(=C(/c2ccccc2)c2cc(C(=O)O)c(O)c3ccccc23)c2ccccc2C1=O | > 100 µM | > 100 µM | > 100 µM | > 100 µM | > 100 µM | > 100 µM | > 100 µM | > 100 µM | > 100 µM | – | – | – | – | – | – | – | – | > 100 µM | – | –
13 | COc1ccc(-c2cc(-c3ccc(Nc4nc(Nc5ccccc5)nc(Nc5ccc(Cl)cc5)n4)cc3)nc(N)n2)cc1 | 26.9 µM | 35 µM | 45.1 µM | > 50 µM | 27.1 µM | > 50 µM | 44.1 µM | > 50 µM | > 50 µM | 12.1 µM | 12.8 µM | 4.72 µM | 15.2 µM | 9.02 µM | 11.3 µM | 13.1 µM | 13.1 µM | 44.9 µM | 8.41 µM | 8.13 µM
14 | CCCCN(CCCC)C(=O)[C@H](CC)[C@@H]1CC[C@@H](C)[C@@H]([C@H](C)[C@@H](O)[C@@H](C)C(=O)[C@H](CC)C2O[C@]3(C=C[C@@H](O)[C@]4(CC[C@@](C)([C@H]5CC[C@](O)(CC)[C@H](C)O5)O4)O3)[C@H](C)C[C@@H]2C)O1 (some centres undefined) | 6.42 µM | 5.04 µM | 3.91 µM | 4.16 µM | 5.44 µM | 4.84 µM | 7.53 µM | 10.3 µM | 8.6 µM | 2.61 µM | 2.01 µM | 1.83 µM | 1.87 µM | 2.08 µM | 1.87 µM | 2.67 µM | 2.75 µM | 11.1 µM | 2.78 µM | 2.26 µM

Source: PubChem BioAssay (NCI)
